System: St6OMT2
Test: UPLC quantification of (S)-coclaurine formed; Hill function fit
Assay type: biochemical, Stephania tetrandra
Details: co-substrate S-adenosyl-L-methionine (1 mM in standard assay); 37°C; PBS; substrate 10–200 μM

Oc1ccc(C[C@@H]2NCCc3cc(O)c(O)cc32)cc1 [(S)-norcoclaurine]
Km: 28.2 µM

Source: paper PMC9009073, “Transcriptome Analysis of Stephania tetrandra and Characterization of Norcoclaurine-6-O-Methyltransferase Involved in Benzylisoquinoline Alkaloid Biosynthesis” (Frontiers in Plant Science, 2022)
